Experimental data as given in patent publication US9381173B2, “Isolated stereoisomeric forms of (S)2-N(3-O-(propan 2-Ol)-1-propyl-4-hydroxybenzene)-3-phenylpropylamide” (Novaremed Ltd., priority 2011, dated 2016).

Key:
Lyn B = Lyn B (Homo sapiens, UniProt P07948); assay: Lyn B mobility-shift kinase assay (Caliper LabChip 3000); type: biochemical; conditions: 5 concentrations, duplicate wells; listed as (S,S) enantiomer
Protocol: (§1) Each compound and concentration was tested in duplicate wells.
(§2) Data points are the averages of duplicate wells. Error bars represent the mean±replicate % activity.

BLK = BLK (Homo sapiens, UniProt P51451); assay: BLK mobility-shift kinase assay (Caliper LabChip 3000); type: biochemical; conditions: 5 concentrations, duplicate wells; listed as (S,S) enantiomer
BLK, sequence (P51451 whole entry, species assumed): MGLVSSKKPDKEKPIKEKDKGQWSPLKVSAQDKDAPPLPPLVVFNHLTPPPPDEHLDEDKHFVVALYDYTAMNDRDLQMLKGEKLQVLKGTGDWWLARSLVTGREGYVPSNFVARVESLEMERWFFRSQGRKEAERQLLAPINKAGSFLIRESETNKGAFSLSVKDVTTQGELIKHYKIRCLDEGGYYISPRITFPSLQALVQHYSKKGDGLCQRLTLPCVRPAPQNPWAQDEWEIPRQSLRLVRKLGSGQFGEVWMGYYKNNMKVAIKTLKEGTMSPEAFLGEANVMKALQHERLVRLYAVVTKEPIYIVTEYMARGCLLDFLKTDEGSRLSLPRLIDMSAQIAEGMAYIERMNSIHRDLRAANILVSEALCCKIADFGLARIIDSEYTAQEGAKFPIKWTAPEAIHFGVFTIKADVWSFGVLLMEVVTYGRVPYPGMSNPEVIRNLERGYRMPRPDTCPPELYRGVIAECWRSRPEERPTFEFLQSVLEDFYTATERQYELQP
Protocol: as §1, §2

[1] = test system: spinal nerve ligation (SNL or Chung) model for neuropathic pain in rats; assay: Spinal nerve ligation (Chung) model, Von Frey test for mechanical allodynia; type: in vivo; conditions: for delta force right minus left leg, Day 14 Pretreatment / mean Von Frey force, left operated leg, Day 14 Pretreatment: before first dose; for difference (delta) force between right healthy leg and left operated leg, Baseline: before operation; for mean Von Frey force required for withdrawal of the left operated leg, Baseline: day -1, before operation
Protocol: The antinociceptive and analgesic activity of E1 in a spinal nerve ligation (SNL or Chung) model for neuropathic pain in rats was evaluated.
On study day 0, all animals underwent Chung surgery, which consisted of an operation where the left L5-L6 spinal nerves were isolated and cut. Fourteen days post surgery the animals were selected using pain threshold results from the Von Frey test. Only animals that indicated signs of mechanical allodynia were included in the study. After the selection process, the animals were grouped and Test Items were administered via IP. The pain response was measured using Von Frey methodology at 2, 5 and 24 hours after Test Item administration on study day 14, and at 2, 5, 24 and 48 hours on study day 21 after 7 days of Test Item administration.
Species: 50 SD young adult male rats, 225-260 g at study initiation (Harlan Laboratories, Israel. Ltd.)
Neuropathic Pain Induction: While under anesthesia using ketamine/xylazine sodium and after the area was shaved, the rat was placed in a prone position and the left paraspinal muscles were separated from the spinous process at the L4-S2 levels. The L6 vertebral transverse process was carefully removed with a small rongeur to visually identify the L5-L6 spinal nerves. The left L5-L6 spinal nerves were cut. The muscle was then closed with 4-0 silk sutures and the skin was closed by a clamp. Following surgery, the rats were returned to the cage and remained under a heating lamp until they awoke.
Inclusion/Exclusion Criteria for Pre-Selection: On post-operative day 14, animals were tested for mechanical allodynia using Von Frey methodology prior to being placed in their experimental groups. Only animals with a pain threshold of ≦26 g for the operated leg were included in the study. In order to form homogenous treatment groups and to adhere to randomization, all the operated rats were grouped according to inclusion/exclusion criteria.
The Von Frey test was performed prior to Test Items' administrations (pre-TI injection) and at 2 and 5 hours after TI administration (post-TI injection) on study days 14 and 21.
Von Frey test was performed prior to TI's administration on study day 15 (24 hours post-TI's administration on study day 14) and on study days 22 and 23 (24 and 48 hours respectively post-TI's administration on study day 21).
Pain Response Evaluation: Pain response was evaluated using Von Frey test for mechanical allodynia.
The Von Frey test for mechanical allodynia is based on applying short pulses of pressure that are not painful to a naive animal. In fact, in order to achieve paw withdrawal from a naive animal, the pressure applied is sometimes higher than 60 g. This often requires the researcher to apply enough pressure with the Von Frey filament to actually lift the paw of the naive animal. However, in disease conditions, the animals are sensitive to much lower pressure and experience pain as a result of a normally non-painful stimulus.
Mechanical Allodynia Evaluation (Von Frey Testing): Allodynic response to tactile stimulation was assessed using the Von Frey apparatus (Touch®).
The rats were placed in an enclosure and positioned on a metal mesh surface, but allowed to move freely. The rats' cabins were covered with red cellophane to diminish environmental disturbances. The test began after cessation of exploratory behavior. The set of Von Frey monofilaments provide an approximate logarithmic scale of actual force and a linear scale of perceived intensity as provided by the manufacturer of the Von Frey apparatus (Ugo Basil). The operating principle: When the tip of a fiber of given length and diameter is pressed against the skin at right angles, the force of application increases as long as the researcher continues to advance the probe until the fiber bends. After the fiber bends, the probe continues to advance, causing the fiber to bend more, but without additional force being applied to the paw. […]

[2] = 7.5 mg/kg IP, day 14, 2, 5 and 24 hours
[3] = 7.5 mg/kg IP, study day 14, 2, 5 and 24 hours
[4] = 15 mg/kg IP once daily day 14-21 (group 4)
[5] = 15 mg/kg IP, day 14, 5 and 24 hours
[6] = 15 mg/kg IP, study day 14, 5 and 24 hours
[7] = 30 mg/kg IP once daily day 14-21 (group 3)
[8] = 30 mg/kg IP once daily from day 14 (group 3)
[9] = 30 mg/kg IP, day 21, 2, 5 and 24 hours

Lyn B, sequence (P07948 1-491 isoform P07948-2, species assumed): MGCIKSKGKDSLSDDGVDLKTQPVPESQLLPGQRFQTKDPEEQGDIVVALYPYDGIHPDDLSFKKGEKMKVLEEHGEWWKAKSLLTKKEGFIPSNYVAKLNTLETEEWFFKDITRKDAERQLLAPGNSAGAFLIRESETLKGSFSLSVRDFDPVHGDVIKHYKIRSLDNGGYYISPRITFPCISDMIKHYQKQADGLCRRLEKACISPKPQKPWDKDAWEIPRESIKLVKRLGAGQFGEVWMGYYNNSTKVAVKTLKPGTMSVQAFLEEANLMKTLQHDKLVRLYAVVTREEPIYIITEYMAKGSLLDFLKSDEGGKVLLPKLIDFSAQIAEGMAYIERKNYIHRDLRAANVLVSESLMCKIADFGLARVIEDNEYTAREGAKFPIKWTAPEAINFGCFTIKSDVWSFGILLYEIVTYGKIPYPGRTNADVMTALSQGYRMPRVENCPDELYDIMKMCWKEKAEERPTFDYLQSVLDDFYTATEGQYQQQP

With CC(O)COCC(Cc1ccc(O)cc1)NC(=O)CCc1ccccc1 (single isomer, unassigned) [E1] the “modulation of LynB tyrosine kinase activity” value (Lyn B) was “had no effect”, the “modulation of BLK tyrosine kinase activity” value (BLK) was “activated” and the “delta force right minus left leg, Day 14 Pretreatment” value ([1]; 7.5 mg/kg IP (group 5)) was 50.10 ± 0.64 g. The “mean Von Frey force, left operated leg, Day 14 Pretreatment” value (shortened to “mean Von Frey force … Day 14 Pretreatment”) ([1]; 7.5 mg/kg IP (group 5)) was 9.90 ± 0.64 g, the “difference (delta) force between right healthy leg and left operated leg, Baseline” value ([1]; 7.5 mg/kg IP (group 5)) was 0.00 ± 0.00 g and the “mean Von Frey force required for withdrawal of the left operated leg, Baseline” value (shortened to “mean Von Frey force required”) ([1]; 7.5 mg/kg IP (group 5)) was 56.60 ± 3.40 g. The “inhibition of allodynia compared to the pretreatment value of delta withdrawal force” value [1, 2] was “inhibited allodynia”, the “pain relief activity, delta withdrawal force between the two legs vs. Vehicle” value [1, 2] was “significant pain relief activity” and the “inhibition of allodynia compared to the pretreatment value of delta withdrawal force” value ([1]; 7.5 mg/kg IP, day 21, 5 hours) was “inhibited allodynia”. For the same compound, the “pain relief activity, delta withdrawal force between the two legs vs. Vehicle” value ([1]; 7.5 mg/kg IP, day 21 pretreatment, 2, 5, 24 and 48 hours) was “significant pain relief activity”, the “inhibition of allodynia (Von Frey) compared to the Vehicle control” value (from here on “inhibition … compared to the Vehicle control”) [1, 3] was “effectively inhibited allodynia” and the “inhibition of allodynia (Von Frey) compared to the pretreatment value” [1, 3] was “inhibited allodynia”. The “inhibition of allodynia (Von Frey) compared to the pretreatment value” ([1]; 7.5 mg/kg IP, study day 21, 5 hours) was “inhibited allodynia”, the “inhibition … compared to the Vehicle control” value ([1]; 7.5 mg/kg IP, study day 21 pretreatment and 2, 5, 24 and 48 hours) was “inhibited allodynia” and the “conclusion: pain analgesic item, parameters of mechanical allodynia” value (“conclusion: pain analgesic item” below) ([1]; 7.5 mg/kg, 2, 5 and 24 hours day 14, 2, 5, 24 and 48 hours day 21) was “effective”. The “delta force right minus left leg, Day 14 Post-treatment 2 hours” value ([1]; 15 mg/kg IP (group 4)) was 48.20 ± 5.67 g, the “delta force right minus left leg, Day 14 Post-treatment 5 hours” value ([1]; 15 mg/kg IP (group 4)) was 29.20 ± 6.66 g and the “mean Von Frey force, left operated leg, Day 14 Post-treatment 2 hours” value ([1]; 15 mg/kg IP (group 4)) was 11.80 ± 5.67 g. For the same compound, the “delta force right minus left leg, Day 14 Pretreatment” value ([1]; 15 mg/kg IP (group 4)) was 50.20 ± 0.90 g, the “mean Von Frey force … Day 14 Pretreatment” value ([1]; 15 mg/kg IP (group 4)) was 9.80 ± 0.90 g and the “difference (delta) force between right healthy leg and left operated leg, Baseline” value ([1]; 15 mg/kg IP (group 4)) was 0.00 ± 0.00 g. The “mean Von Frey force required” value ([1]; 15 mg/kg IP (group 4)) was 56.60 ± 3.40 g, the “delta force right minus left leg, Day 21 Post-treatment 48 hours” value [1, 4] was 39.80 ± 4.80 g and the “mean Von Frey force, left operated leg, Day 21 Post-treatment 48 hours” value [1, 4] was 20.20 ± 4.80 g. For the same compound, the “inhibition of allodynia compared to the pretreatment value of delta withdrawal force” value [1, 5] was “inhibited allodynia”, the “pain relief activity, delta withdrawal force between the two legs vs. Vehicle” value [1, 5] was “significant pain relief activity” and the “pain relief activity, delta withdrawal force between the two legs vs. Vehicle” value ([1]; 15 mg/kg IP, day 21 pretreatment, 2, 5 and 24 hours) was “significant pain relief activity”. For the same compound, the “inhibition … compared to the Vehicle control” value [1, 6] was “inhibited allodynia”, the “inhibition of allodynia (Von Frey) compared to the pretreatment value” [1, 6] was “inhibited allodynia” and the “inhibition … compared to the Vehicle control” value ([1]; 15 mg/kg IP, study day 14, 2 hours) was “did not inhibit allodynia”. For the same compound, the “inhibition … compared to the Vehicle control” value ([1]; 15 mg/kg IP, study day 21, 48 hours) was “less effective”, the “inhibition … compared to the Vehicle control” value ([1]; 15 mg/kg IP, study day 21 pretreatment, 2, 5 and 24 hours) was “inhibited allodynia” and the “conclusion: pain analgesic item” value ([1]; 15 mg/kg, 5 and 24 hours day 14, 2, 5 and 24 hours day 21) was “effective”. The “delta force right minus left leg, Day 14 Post-treatment 2 hours” value ([1]; 30 mg/kg IP (group 3)) was 46.80 ± 1.70 g, the “delta force right minus left leg, Day 14 Post-treatment 24 hours” value ([1]; 30 mg/kg IP (group 3)) was 34.80 ± 6.25 g and the “mean Von Frey force, left operated leg, Day 14 Post-treatment 2 hours” value ([1]; 30 mg/kg IP (group 3)) was 13.20 ± 1.70 g. For the same compound, the “mean Von Frey force, left operated leg, Day 14 Post-treatment 5 hours” value ([1]; 30 mg/kg IP (group 3)) was 30.60 ± 5.10 g, the “delta force right minus left leg, Day 14 Pretreatment” value ([1]; 30 mg/kg IP (group 3)) was 49.50 ± 1.06 g and the “mean Von Frey force … Day 14 Pretreatment” value ([1]; 30 mg/kg IP (group 3)) was 10.50 ± 1.06 g. For the same compound, the “difference (delta) force between right healthy leg and left operated leg, Baseline” value ([1]; 30 mg/kg IP (group 3)) was 0.00 ± 0.00 g, the “mean Von Frey force required” value ([1]; 30 mg/kg IP (group 3)) was 60.00 ± 0.00 g and the “delta force right minus left leg, Day 21 Post-treatment 48 hours” value [1, 7] was 51.10 ± 0.82 g. For the same compound, the “mean Von Frey force, left operated leg, Day 21 Post-treatment 2 hours” value [1, 7] was 19.40 ± 1.80 g, the “mean Von Frey force, left operated leg, Day 21 Post-treatment 5 hours” value [1, 7] was 22.90 ± 4.64 g and the “mean Von Frey force, left operated leg, Day 21 Post-treatment 24 hours” value [1, 7] was 17.50 ± 2.48 g. The “mean Von Frey force, left operated leg, Day 21 Post-treatment 48 hours” value [1, 7] was 8.90 ± 0.82 g, the “delta force right minus left leg, Day 21 Pretreatment” value [1, 8] was 47.00 ± 1.76 g and the “mean Von Frey force, left operated leg, Day 21 Pretreatment” value [1, 8] was 13.00 ± 1.76 g. The “inhibition of allodynia compared to the pretreatment value of delta withdrawal force” value ([1]; 30 mg/kg IP, day 14, 5 hours) was “inhibited allodynia”, the “pain relief activity, delta withdrawal force between the two legs vs. Vehicle” value ([1]; 30 mg/kg IP, day 14, 5 hours) was “significant pain relief activity” and the “inhibition of allodynia compared to the pretreatment value of delta withdrawal force” value [1, 9] was “inhibited allodynia”. The “pain relief activity, delta withdrawal force between the two legs vs. Vehicle” value [1, 9] was “significant pain relief activity”, the “inhibition of allodynia (Von Frey) compared to the pretreatment value” ([1]; 30 mg/kg IP, study day 14, 5 hours) was “inhibited allodynia” and the “inhibition of allodynia (Von Frey) compared to the pretreatment value” ([1]; 30 mg/kg IP, study day 21, 2, 5 and 24 hours) was “inhibited allodynia”. For the same compound, the “conclusion: pain analgesic item” value ([1]; 30 mg/kg, at 5 post administration day 14, 2, 5 and 24 hours day 21) was “effective”, the “duration of analgesic effect post administration” value ([1]; summary statement) was “more than 24 hours” and the “behaviour of the operated paw on the Von Frey apparatus” value ([1]; treated animals) was “laid completely the operated paw on the metal mesh surface”.
